Read-outs that look alike come from different tables or passages of the source.
Key:
[1] = tested on: C. tropicalis #125 A15051; assay: MIC by two-fold agar dilution; assay type: cell-based; conditions: Ct-4 C. tropicalis #125 A15051; sabouraud agar; unit assumed
S. aureus 209P = assay: MIC by two-fold agar dilution; assay type: cell-based; conditions: Mueller-Hinton agar, unit assumed
E. coli A20732 = assay: MIC by two-fold agar dilution; assay type: cell-based; conditions: Mueller-Hinton agar, unit assumed
Mycobacterium 607, D46 = assay: MIC by two-fold agar dilution; assay type: cell-based; conditions: Medium #1001, unit assumed
[2] = tested on: Walker 256 carcinosarcoma in ascitic form; conditions: for Average Weight Change: recorded Day 5; for Survivors Day 44: survivors considered cured; for Survivors Day 5: toxicity evaluation;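 for all read-outs here: female SD rats bearing intraperitoneally implanted ascites tumor cells, treated ip once a day for 8 days beginning on Day 1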
E. coli NIHJ = assay: In vivo activity in experimental mice infection; conditions: Table 11 second part
Method: (§1) The in vivo activity of Bu-2231 complex was evaluated in experimental mice infections against S. aureus Smith and E. coli NIHJ. Bleomycin was tested comparatively as a reference antibiotic.
The in vivo activty of the individual components of Bu-2231 in each of the copper-free and copper complex forms was also determined in E. coli infection.

E. coli A20665 = assay: MIC by two-fold agar dilution; assay type: cell-based; conditions: Mueller-Hinton agar, unit assumed
P. vulgaris A9436 = assay: MIC by two-fold agar dilution; assay type: cell-based; conditions: Mueller-Hinton agar, unit assumed
K. pneumoniae D11 = assay: MIC by two-fold agar dilution; assay type: cell-based; conditions: Mueller-Hinton agar, unit assumed
C. tropicalis IAM 4157 = assay: MIC by two-fold agar dilution; assay type: cell-based; conditions: Ct-1 C. tropicalis IAM 4157; sabouraud agar; unit assumed
C. neoformans IAM 4514 = assay: MIC by two-fold agar dilution; assay type: cell-based; conditions: Cn-2 C. neoformans IAM 4514; sabouraud agar; unit assumed
Mycobacterium 607, D47 = assay: MIC by two-fold agar dilution; assay type: cell-based; conditions: Medium #1001, unit assumed
Verticillium sp. = assay: MIC by two-fold agar dilution; assay type: cell-based; conditions: Vx-1 Verticillium sp.; sabouraud agar; unit assumed
T. mentagrophytes D-155 = assay: MIC by two-fold agar dilution; assay type: cell-based; conditions: Tm-1 T. mentagrophytes D-155; sabouraud agar; unit assumed
B. anthracis 115 = assay type: cell-based; conditions: Mueller-Hinton agar, unit assumed
S. aureus A20239 = assay: MIC by two-fold agar dilution; assay type: cell-based; conditions: Mueller-Hinton agar, unit assumed
S. aureus Smith = assay: In vivo activity in experimental mice infection; conditions: Table 11
Method: as §1

S. marcescens A20019 = assay: MIC by two-fold agar dilution; assay type: cell-based; conditions: Mueller-Hinton agar, unit assumed
Lewis Lung carcinoma = conditions: Exp. #55; for Survivors Day 5: toxicity evaluation
P. mirabilis A9554 = assay: MIC by two-fold agar dilution; assay type: cell-based; conditions: Mueller-Hinton agar, unit assumed
P. citrinum IAM 7008 = assay: MIC by two-fold agar dilution; assay type: cell-based; conditions: Pt-1 P. citrinum IAM 7008; sabouraud agar; unit assumed
K. pneumoniae A20680 = assay: MIC by two-fold agar dilution; assay type: cell-based; conditions: Mueller-Hinton agar, unit assumed
C. lunata ATCC 13432 = assay: MIC by two-fold agar dilution; assay type: cell-based; conditions: Cl-1 C. lunata ATCC 13432; sabouraud agar; unit assumed
B. subtilis PCI-219 = assay: MIC by two-fold agar dilution; assay type: cell-based; conditions: Mueller-Hinton agar, unit assumed
[3] = Exp. #5439, 160 mcg/kg/day ip once daily for 8 days
[4] = Exp. #5439, 640 mcg/kg/day ip once daily for 8 days
[5] = Exp. #5439, 2560 mcg/kg/day ip once daily for 8 days
[6] = 1 mg/kg/day ip once daily for 9 days
[7] = 2 mg/kg/day ip once daily for 9 days
[8] = 4 mg/kg/day ip once daily for 9 days
[9] = 8 mg/kg/day ip once daily for 9 days

With Bleomycin [reference compound] the MIC [1] was > 100 µg/mL, the MIC (S. aureus 209P) was 6.3 µg/mL and the MIC (E. coli A20732) was 1.6 µg/mL. For the same substance, the MIC (Mycobacterium 607, D46) was 0.2 µg/mL, the “Effect MST %T/C” value [2, 3] was 111% and the “MST Days” value [2, 3] was 10.0 days. For the same substance, the “Average Weight Change” value ([2]; Exp. #5439, 160 mcg/kg/day) was “+11 g”, the “Survivors Day 44” value ([2]; Exp. #5439, 160 mcg/kg/day) was 0/6 and the “Survivors Day 5” value ([2]; Exp. #5439, 160 mcg/kg/day) was 6/6. For the same substance, the “Effect MST %T/C” value [2, 4] was 194%, the “MST Days” value [2, 4] was 17.5 days and the “Survivors Day 44” value ([2]; Exp. #5439, 640 mcg/kg/day) was 1/6. For the same substance, the “Survivors Day 5” value ([2]; Exp. #5439, 640 mcg/kg/day) was 6/6, the “Effect MST %T/C” value [2, 5] was > 489% and the “MST Days” value [2, 5] was > 44.0 days. The “Average Weight Change” value ([2]; Exp. #5439, 2560 mcg/kg/day) was “+10 g”, the “Survivors Day 44” value ([2]; Exp. #5439, 2560 mcg/kg/day) was 4/6 and the “Survivors Day 5” value ([2]; Exp. #5439, 2560 mcg/kg/day) was 6/6. The “Effect MST %T/C” value ([2]; Exp. #5501, 160 mcg/kg/day ip once daily for 8 days) was 157%, the “MST Days” value ([2]; Exp. #5501, 160 mcg/kg/day ip once daily for 8 days, Bu-2231 A and B as copper-free formate salts) was 11.0 days and the “Survivors Day 5” value ([2]; Exp. #5501, 160 mcg/kg/day) was 6/6. For the same substance, the “Effect MST %T/C” value ([2]; Exp. #5501, 640 mcg/kg/day ip once daily for 8 days) was 179%, the “MST Days” value ([2]; Exp. #5501, 640 mcg/kg/day ip once daily for 8 days, Bu-2231 A and B as copper-free formate salts) was 12.5 days and the “Survivors Day 5” value ([2]; Exp. #5501, 640 mcg/kg/day) was 6/6. For the same substance, the “minimum effective dose (MED)” value ([2]; Table I, Walker 256 ascitic tumor) was 0.64 mg/kg, the “PD50 (median protective dose)” value (E. coli NIHJ; E. coli NIHJ infection, mice, sc) was 2.55 mg/kg and the “In vivo activity, E. coli NIHJ infection (x/5 mice)” value (E. coli NIHJ; dose (sc) 0.13 mg/kg) was 0/5. For the same substance, the “In vivo activity, E. coli NIHJ infection (x/5 mice)” value (E. coli NIHJ; dose (sc) 0.5 mg/kg) was 1/5, the “In vivo activity, E. coli NIHJ infection (x/5 mice)” value (E. coli NIHJ; dose (sc) 2 mg/kg) was 1/5 and the “In vivo activity, E. coli NIHJ infection (x/5 mice)” value (E. coli NIHJ; dose (sc) 8 mg/kg) was 5/5. It also gave an MIC (E. coli A20665) of 0.2 µg/mL, an MIC (P. vulgaris A9436) of 6.3 µg/mL and an MIC (K. pneumoniae D11) of 0.2 µg/mL. It also gave an MIC (C. tropicalis IAM 4157) of 12.5 µg/mL, an MIC (C. neoformans IAM 4514) of 1.6 µg/mL and an MIC (Mycobacterium 607, D47) of 0.4 µg/mL. The MIC (Verticillium sp.) was 6.3 µg/mL, the MIC (T. mentagrophytes D-155) was > 100 µg/mL and the MIC (B. anthracis 115) was 12.5 µg/mL. For the same substance, the MIC (S. aureus A20239) was 12.5 µg/mL, the “PD50 (median protective dose)” value (S. aureus Smith; S. aureus Smith infection, mice, sc) was 2.5 mg/kg and the “In vivo activity vs. S. aureus Smith infection (x/5 mice)” value (S. aureus Smith; dose (sc) 0.13 mg/kg) was 0/5. The “In vivo activity vs. S. aureus Smith infection (x/5 mice)” value (S. aureus Smith; dose (sc) 0.5 mg/kg) was 1/5, the “In vivo activity vs. S. aureus Smith infection (x/5 mice)” value (S. aureus Smith; dose (sc) 2 mg/kg) was 2/5 and the “In vivo activity vs. S. aureus Smith infection (x/5 mice)” value (S. aureus Smith; dose (sc) 8 mg/kg) was 4/5. The MIC (S. marcescens A20019) was > 100 µg/mL, the “Effect MST %T/C” value (Lewis Lung carcinoma; [6]) was 109% and the “MST Days” value (Lewis Lung carcinoma; [6]) was 24.0 days. For the same substance, the “Survivors Day 5” value (Lewis Lung carcinoma; 1 mg/kg/day) was 6/6, the “Effect MST %T/C” value (Lewis Lung carcinoma; [7]) was 109% and the “MST Days” value (Lewis Lung carcinoma; [7]) was 24.0 days. The “Survivors Day 5” value (Lewis Lung carcinoma; 2 mg/kg/day) was 6/6, the “Effect MST %T/C” value (Lewis Lung carcinoma; [8]) was 57% and the “MST Days” value (Lewis Lung carcinoma; [8]) was 12.5 days. The “Survivors Day 5” value (Lewis Lung carcinoma; 4 mg/kg/day) was 6/6, the “Effect MST %T/C” value (Lewis Lung carcinoma; [9]) was 48% and the “MST Days” value (Lewis Lung carcinoma; [9]) was 10.5 days. For the same substance, the “Survivors Day 5” value (Lewis Lung carcinoma; 8 mg/kg/day) was 6/6, the MIC (P. mirabilis A9554) was 50 µg/mL and the MIC (P. citrinum IAM 7008) was > 100 µg/mL. The MIC (K. pneumoniae A20680) was > 100 µg/mL, the MIC (C. lunata ATCC 13432) was 0.1 µg/mL and the MIC (B. subtilis PCI-219) was < 0.0063 µg/mL.
